Structures can show the parent of a compound that is named as a salt.
Legend:
Experiment in all cases: cells
Format in all cases: functional, cell-based, Homo sapiens
[1] = tested on: COLO-829
Description: SANGER: Inhibition of human COLO-829 cell growth in a cell viability assay.

[2] = tested on: HT
Description: SANGER: Inhibition of human HT cell growth in a cell viability assay.

[3] = tested on: DOHH-2;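 note: growth inhibition of human DOHH-2 cells, read out with a cell viability assay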
Description: SANGER: Inhibition of human DOHH-2 cell growth in a cell viability assay.

[4] = tested on: SBC-1;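 note: cell viability assay measuring growth inhibition of the SBC-1 cell line, IC50 being the concentration that halves growth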
Description: SANGER: Inhibition of human SBC-1 cell growth in a cell viability assay.

[5] = tested on: JVM-2;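 note: growth inhibition of JVM-2 cells determined by a cell viability assay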
Description: SANGER: Inhibition of human JVM-2 cell growth in a cell viability assay.

[6] = tested on: NMC-G1;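 note: growth inhibition of the NMC-G1 cell line, measured with a cell viability read-out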
Description: SANGER: Inhibition of human NMC-G1 cell growth in a cell viability assay.

[7] = tested on: NCI-H69;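 note: growth inhibition of the cell line, read out with a cell viability assay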
Description: SANGER: Inhibition of human NCI-H69 cell growth in a cell viability assay.

[8] = tested on: CTB-1
Description: SANGER: Inhibition of human CTB-1 cell growth in a cell viability assay.

[9] = tested on: GAK;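 note: cell growth inhibition read out by a cell viability assay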
Description: SANGER: Inhibition of human GAK cell growth in a cell viability assay.

[10] = tested on: HL-60;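 note: growth inhibition of human HL-60 cells, read out with a cell viability assay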
Description: SANGER: Inhibition of human HL-60 cell growth in a cell viability assay.

[11] = tested on: L-363
Description: SANGER: Inhibition of human L-363 cell growth in a cell viability assay.

[12] = tested on: no-11;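 note: growth inhibition of human NO-11 cells, read out with a cell viability assay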
Description: SANGER: Inhibition of human no-11 cell growth in a cell viability assay.

[13] = tested on: TK-10;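 note: growth inhibition of TK-10 cells, read out in a cell viability assay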
Description: SANGER: Inhibition of human TK10 cell growth in a cell viability assay.

[14] = tested on: SK-MEL-1;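 note: growth inhibition of human SK-MEL-1 cells, read out by a cell viability assay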
Description: SANGER: Inhibition of human SK-MEL-1 cell growth in a cell viability assay.

[15] = tested on: TE-9;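 note: cell growth inhibition, measured with a cell viability readout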
Description: SANGER: Inhibition of human TE-9 cell growth in a cell viability assay.

[16] = tested on: NCI-H1581;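 note: cell growth inhibition read out by a viability assay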
Description: SANGER: Inhibition of human NCI-H1581 cell growth in a cell viability assay.

[17] = tested on: LB1047-RCC;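 note: inhibition of cell growth, determined with a cell viability assay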
Description: SANGER: Inhibition of human LB1047-RCC cell growth in a cell viability assay.

[18] = tested on: BV-173
Description: SANGER: Inhibition of human BV-173 cell growth in a cell viability assay.

[19] = tested on: ES4;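 note: growth inhibition of human ES4 cells, read out by a cell viability assay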
Description: SANGER: Inhibition of human ES4 cell growth in a cell viability assay.

[20] = tested on: NCI-H1299;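 note: growth inhibition of human NCI-H1299 cells, read out by a cell viability assay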
Description: SANGER: Inhibition of human NCI-H1299 cell growth in a cell viability assay.

[21] = tested on: KLE;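 note: growth inhibition of human KLE cells, read out with a cell viability assay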
Description: SANGER: Inhibition of human KLE cell growth in a cell viability assay.

[22] = tested on: D-247MG; settings: Homo sapiens, D-247MG
Description: SANGER: Inhibition of human D-247MG cell growth in a cell viability assay.

[23] = tested on: UACC-257
Description: SANGER: Inhibition of human UACC-257 cell growth in a cell viability assay.

[24] = tested on: LS-123
Description: SANGER: Inhibition of human LS-123 cell growth in a cell viability assay.

[25] = tested on: ETK-1;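 note: growth inhibition of human ETK-1 cells, read out with a cell viability assay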
Description: SANGER: Inhibition of human ETK-1 cell growth in a cell viability assay.

[26] = tested on: NCI-H1155;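 note: cell growth inhibition measured by a viability assay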
Description: SANGER: Inhibition of human NCI-H1155 cell growth in a cell viability assay.

[27] = tested on: VA-ES-BJ;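 note: growth inhibition of the VA-ES-BJ cell line, read out by a cell viability assay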
Description: SANGER: Inhibition of human VA-ES-BJ cell growth in a cell viability assay.

[28] = tested on: SF-268;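 note: growth inhibition of SF-268 cells determined with a cell viability assay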
Description: SANGER: Inhibition of human SF268 cell growth in a cell viability assay.

[29] = tested on: ES1;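 note: growth inhibition of ES1 cells, read out with a cell viability assay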
Description: SANGER: Inhibition of human ES1 cell growth in a cell viability assay.

[30] = tested on: TE-5;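 note: inhibition of cell growth, read out by a cell viability assay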
Description: SANGER: Inhibition of human TE-5 cell growth in a cell viability assay.

[31] = tested on: RXF 393;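 note: growth inhibition of human RXF 393 cells, read out with a cell viability assay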
Description: SANGER: Inhibition of human RXF393 cell growth in a cell viability assay.

[32] = tested on: COLO-320-HSR;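 note: growth inhibition of COLO-320-HSR cells, determined with a cell viability assay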
Description: SANGER: Inhibition of human COLO-320-HSR cell growth in a cell viability assay.

[33] = tested on: MN-60;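 note: growth inhibition of the MN-60 cell line, determined with a cell viability assay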
Description: SANGER: Inhibition of human MN-60 cell growth in a cell viability assay.

[34] = tested on: EC-GI-10
Description: SANGER: Inhibition of human EC-GI-10 cell growth in a cell viability assay.

[35] = tested on: NB5;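 note: growth inhibition of NB5 cells, read out as cell viability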
Description: SANGER: Inhibition of human NB5 cell growth in a cell viability assay.

[36] = tested on: RPMI-8866
Description: SANGER: Inhibition of human RPMI-8866 cell growth in a cell viability assay.

[37] = tested on: TE-10;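 note: growth inhibition of TE-10 cells, measured by a cell viability assay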
Description: SANGER: Inhibition of human TE-10 cell growth in a cell viability assay.

[38] = tested on: NCI-H209;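 note: growth inhibition of human NCI-H209 cells, measured by a cell viability assay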
Description: SANGER: Inhibition of human NCI-H209 cell growth in a cell viability assay.

[39] = tested on: NH-12;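 note: growth inhibition of NH-12 cells, read out with a cell viability assay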
Description: SANGER: Inhibition of human NH-12 cell growth in a cell viability assay.

[40] = tested on: NCI-H1092;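 note: cell growth inhibition measured with a cell viability assay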
Description: SANGER: Inhibition of human NCI-H1092 cell growth in a cell viability assay.

[41] = tested on: MMAC-SF;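 note: growth inhibition of human MMAC-SF cells, read out with a cell viability assay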
Description: SANGER: Inhibition of human MMAC-SF cell growth in a cell viability assay.

[42] = tested on: HCC2157;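 note: growth inhibition of the cancer cell line, read out as cell viability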
Description: SANGER: Inhibition of human HCC2157 cell growth in a cell viability assay.

[43] = tested on: MZ1-PC;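 note: cell viability assay measuring growth inhibition of human MZ1-PC cells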
Description: SANGER: Inhibition of human MZ1-PC cell growth in a cell viability assay.

[44] = tested on: SW684;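 note: growth inhibition of human SW684 cells, measured by a cell viability assay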
Description: SANGER: Inhibition of human SW684 cell growth in a cell viability assay.

[45] = tested on: COLO-800;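 note: growth inhibition of COLO-800 cells, read out with a cell viability assay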
Description: SANGER: Inhibition of human COLO-800 cell growth in a cell viability assay.

[46] = tested on: C8166;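 note: growth inhibition of human C8166 cells measured by a cell viability assay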
Description: SANGER: Inhibition of human C8166 cell growth in a cell viability assay.

[47] = tested on: LB996-RCC
Description: SANGER: Inhibition of human LB996-RCC cell growth in a cell viability assay.

[48] = tested on: NB6;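 note: growth inhibition of NB6 cells, read out by a cell viability assay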
Description: SANGER: Inhibition of human NB6 cell growth in a cell viability assay.

[49] = tested on: NB12;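 note: growth inhibition of human NB12 cells, read out by a cell viability assay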
Description: SANGER: Inhibition of human NB12 cell growth in a cell viability assay.

`CN(C)C(=N)NC(=N)N` [METFORMIN] showed an IC50 ([1]; Homo sapiens, COLO-829) greater than 20000 µM, an IC50 ([2]; Homo sapiens, HT) of 11900 µM and an IC50 ([3]; Homo sapiens, DOHH-2) of 7640 µM. The IC50 ([4]; Homo sapiens, SBC-1) was 6930 µM, the IC50 ([5]; Homo sapiens, JVM-2) was greater than 20000 µM and the IC50 ([6]; Homo sapiens, NMC-G1) was greater than 20000 µM. The IC50 ([7]; Homo sapiens, NCI-H69) was 8560 µM, the IC50 ([8]; Homo sapiens, CTB-1) was greater than 20000 µM and the IC50 ([9]; Homo sapiens, GAK) was greater than 20000 µM. The IC50 ([10]; Homo sapiens, HL-60) was greater than 20000 µM, the IC50 ([11]; Homo sapiens, L-363) was 6740 µM and the IC50 ([12]; Homo sapiens) was greater than 20000 µM. It also gave an IC50 ([13]; Homo sapiens, TK-10) greater than 20000 µM, an IC50 ([14]; Homo sapiens, SK-MEL-1) of 11800 µM and an IC50 ([15]; Homo sapiens, TE-9) of 10500 µM. The IC50 ([16]; Homo sapiens, NCI-H1581) was 14900 µM, the IC50 ([17]; Homo sapiens, LB1047-RCC) was 16400 µM and the IC50 ([18]; Homo sapiens, BV-173) was 3020 µM. It also gave an IC50 ([19]; Homo sapiens, ES4) greater than 20000 µM, an IC50 ([20]; Homo sapiens, NCI-H1299) of 10100 µM and an IC50 ([21]; Homo sapiens, KLE) greater than 20000 µM. For the same compound, the IC50 [22] was greater than 20000 µM, the IC50 ([23]; Homo sapiens, UACC-257) was 13900 µM and the IC50 ([24]; Homo sapiens, LS-123) was 17300 µM. For the same compound, the IC50 ([25]; Homo sapiens, ETK-1) was 14100 µM, the IC50 ([26]; Homo sapiens, NCI-H1155) was 17700 µM and the IC50 ([27]; Homo sapiens, VA-ES-BJ) was 13300 µM. For the same compound, the IC50 ([28]; Homo sapiens, SF-268) was greater than 20000 µM, the IC50 ([29]; Homo sapiens, ES1) was greater than 20000 µM and the IC50 ([30]; Homo sapiens, TE-5) was greater than 20000 µM. For the same compound, the IC50 ([31]; Homo sapiens, RXF 393) was greater than 20000 µM, the IC50 ([32]; Homo sapiens, COLO-320-HSR) was greater than 20000 µM and the IC50 ([33]; Homo sapiens, MN-60) was greater than 20000 µM. The IC50 ([34]; Homo sapiens, EC-GI-10) was greater than 20000 µM, the IC50 ([35]; Homo sapiens, NB5) was greater than 20000 µM and the IC50 ([36]; Homo sapiens, RPMI-8866) was 9030 µM. For the same compound, the IC50 ([37]; Homo sapiens, TE-10) was greater than 20000 µM and the IC50 ([38]; Homo sapiens, NCI-H209) was 925 µM.

Compound `COC1=CC(c2cc3ccccc3[nH]2)=N/C1=C\c1[nH]c(C)cc1C` [OBATOCLAX MESYLATE] has an IC50 ([1]; Homo sapiens, COLO-829) of 0.72 µM, an IC50 ([2]; Homo sapiens, HT) of 0.256 µM and an IC50 ([3]; Homo sapiens, DOHH-2) of less than 0.0625 µM. For the same compound, the IC50 ([4]; Homo sapiens, SBC-1) was 3.09 µM, the IC50 ([5]; Homo sapiens, JVM-2) was 3.94 µM and the IC50 ([39]; Homo sapiens, NH-12) was 0.54 µM. For the same compound, the IC50 ([6]; Homo sapiens, NMC-G1) was 0.319 µM, the IC50 ([7]; Homo sapiens, NCI-H69) was 4.7 µM and the IC50 ([8]; Homo sapiens, CTB-1) was 0.0759 µM. The IC50 ([9]; Homo sapiens, GAK) was less than 0.0625 µM, the IC50 ([10]; Homo sapiens, HL-60) was 1.26 µM and the IC50 ([11]; Homo sapiens, L-363) was 0.0468 µM. For the same compound, the IC50 ([40]; Homo sapiens, NCI-H1092) was 3.08 µM, the IC50 ([12]; Homo sapiens) was 1.51 µM and the IC50 ([13]; Homo sapiens, TK-10) was 0.177 µM. For the same compound, the IC50 ([41]; Homo sapiens, MMAC-SF) was 0.0767 µM, the IC50 ([14]; Homo sapiens, SK-MEL-1) was greater than 16 µM and the IC50 ([42]; Homo sapiens, HCC2157) was 1.14 µM. It also gave an IC50 ([15]; Homo sapiens, TE-9) of 0.233 µM, an IC50 ([16]; Homo sapiens, NCI-H1581) of 2.32 µM and an IC50 ([17]; Homo sapiens, LB1047-RCC) of 0.358 µM. For the same compound, the IC50 ([43]; Homo sapiens, MZ1-PC) was 0.108 µM, the IC50 ([44]; Homo sapiens, SW684) was greater than 16 µM and the IC50 ([18]; Homo sapiens, BV-173) was 1.83 µM. For the same compound, the IC50 ([19]; Homo sapiens, ES4) was 0.103 µM, the IC50 ([20]; Homo sapiens, NCI-H1299) was 0.0613 µM and the IC50 ([21]; Homo sapiens, KLE) was 1.66 µM. It also gave an IC50 ([45]; Homo sapiens, COLO-800) of 5.19 µM, an IC50 ([23]; Homo sapiens, UACC-257) of 0.595 µM and an IC50 ([24]; Homo sapiens, LS-123) of 0.0872 µM. It also gave an IC50 ([46]; Homo sapiens, C8166) of 0.474 µM, an IC50 ([25]; Homo sapiens, ETK-1) of 0.0567 µM and an IC50 ([26]; Homo sapiens, NCI-H1155) of 6.96 µM. For the same compound, the IC50 ([27]; Homo sapiens, VA-ES-BJ) was 0.7 µM, the IC50 ([47]; Homo sapiens, LB996-RCC) was 0.471 µM and the IC50 ([28]; Homo sapiens, SF-268) was 0.0576 µM. For the same compound, the IC50 ([29]; Homo sapiens, ES1) was 0.0489 µM, the IC50 ([30]; Homo sapiens, TE-5) was 0.483 µM and the IC50 ([31]; Homo sapiens, RXF 393) was 1.77 µM. It also gave an IC50 ([48]; Homo sapiens, NB6) of 4.43 µM, an IC50 ([32]; Homo sapiens, COLO-320-HSR) of 0.0529 µM and an IC50 ([33]; Homo sapiens, MN-60) of 0.099 µM. The IC50 ([34]; Homo sapiens, EC-GI-10) was greater than 16 µM, the IC50 ([35]; Homo sapiens, NB5) was 1.41 µM and the IC50 ([36]; Homo sapiens, RPMI-8866) was 0.133 µM. The IC50 ([49]; Homo sapiens, NB12) was 0.725 µM, the IC50 ([37]; Homo sapiens, TE-10) was 0.0958 µM and the IC50 ([38]; Homo sapiens, NCI-H209) was 3.68 µM.

In the case of BLEOMYCIN, the IC50 ([1]; colo-829) is reported as 37 µM, the IC50 ([2]; ht) is reported as 5.56 µM and the IC50 ([3]; dohh-2) is reported as 5.29 µM. The IC50 ([4]; sbc-1) was 370 µM, the IC50 ([5]; jvm-2) was 0.572 µM and the IC50 ([39]; nh-12) was 2.21 µM. The IC50 ([6]; nmc-g1) was 0.0119 µM, the IC50 ([7]; nci-h69) was 104 µM and the IC50 ([8]; ctb-1) was 0.0269 µM. For the same compound, the IC50 ([9]; gak) was 126 µM, the IC50 ([10]; hl-60) was 35.3 µM and the IC50 ([11]; l-363) was 187 µM. It also gave an IC50 ([40]; nci-h1092) of 160 µM, an IC50 [12] of 85.6 µM and an IC50 ([13]; tk-10) of 0.999 µM. It also gave an IC50 ([41]; mmac-sf) of 21.3 µM, an IC50 ([14]; sk-mel-1) of 260 µM and an IC50 ([42]; hcc2157) of 93.4 µM. It also gave an IC50 ([15]; te-9) of 34 µM, an IC50 ([16]; nci-h1581) of 110 µM and an IC50 ([17]; lb1047-rcc) of 0.0325 µM. For the same compound, the IC50 ([43]; mz1-pc) was 0.224 µM, the IC50 ([44]; sw684) was 3870 µM and the IC50 ([18]; bv-173) was 0.855 µM. The IC50 ([19]; es4) was 0.0383 µM, the IC50 ([20]; nci-h1299) was 0.108 µM and the IC50 ([21]; kle) was 21.2 µM. For the same compound, the IC50 ([45]; colo-800) was 2.21 µM, the IC50 ([23]; uacc-257) was 234 µM and the IC50 ([24]; ls-123) was 23.4 µM. The IC50 ([46]; c8166) was 7.77 µM, the IC50 ([25]; etk-1) was 0.0805 µM and the IC50 ([26]; nci-h1155) was 73.2 µM. The IC50 ([27]; va-es-bj) was 0.26 µM, the IC50 ([47]; lb996-rcc) was 0.175 µM and the IC50 ([28]; sf-268) was 1.32 µM. It also gave an IC50 ([29]; es1) of 0.0267 µM, an IC50 ([30]; te-5) of 7.96 µM and an IC50 ([31]; rxf 393) of 176 µM. It also gave an IC50 ([48]; nb6) of 430 µM, an IC50 ([32]; colo-320-hsr) of 3.43 µM and an IC50 ([33]; mn-60) of 4.05 µM. It also gave an IC50 ([34]; ec-gi-10) of 305 µM, an IC50 ([35]; nb5) of 6.72 µM and an IC50 ([36]; rpmi-8866) of 7.91 µM. It also gave an IC50 ([49]; nb12) of 82.4 µM, an IC50 ([37]; te-10) of 0.783 µM and an IC50 ([38]; nci-h209) of 34.3 µM.
